In patent US7078550B2, “Silanyl phenols and naphthols” (Ciba Specialty Chemicals Corporation, priority 2001, dated 2006) one finds MIC data, which are given here for 19 compounds.

What is called MIC is the smallest concentration in the dilution series that meets the test's criterion for growth inhibition. Low values mean a more susceptible organism, high ones a less susceptible organism.

Holding throughout (experiment): Minimum Inhibitory Concentration (MIC) in the agar incorporation test
What all share (type): cell-based

In test [1] the test system is Candida albicans ATCC 10231. The protocol: (§1) Determination of the Minimum Inhibitory Concentration (MIC) in the Agar Incorporation Test (MIC Test)
(§2) 0.3 ml of each dilution stage is mixed with 15 ml of still-liquid nutrient medium. After the nutrient medium has solidified, 10 μl of each of the following organism dilutions of the test strains in 0.85% NaCl solution are spotted onto the agar medium:
(§3) The plates are incubated for 24 hours at 37° C. (A. niger 3 days at 28° C.) and then the highest dilution (lowest concentration) of the test substance at which growth is just no longer discernible (corresponds to the MIC) is determined.

In test [2] the test system is Staphylococcus aureus ATCC 9144. The conditions noted are these: ATCC9144, 24 hours at 37° C. The protocol:
as §1, §2, §3

The subject of test [3] is Pseudomonas aeruginosa CIP A-22. The note with it: CIPA22, 24 hours at 37° C. The protocol: as §1, §2, §3
Test [4] concerns Escherichia coli NCTC 8196. The note with it: NCTC8196, 24 hours at 37° C. On the procedure: as §1, §2, §3
The subject of test [5] is Aspergillus niger ATCC 6275. The note with it: ATCC6275, 72 h, Sabouraud 4% glucose agar, 3 days at 28° C. On the procedure:
as §1, §2, §3

Test [6] deals with Enterococcus hirae ATCC 10541. The conditions noted are these: ATCC10541. The protocol: (§4) Determination of the Minimum Inhibitory Concentration (MIC) in the Agar Incorporation Test (MIC Test) [table] Test Principle: 0.3 ml of each dilution stage is mixed with 15 ml of still-liquid nutrient medium. After the nutrient medium has solidified, 10 μl of each of the following organism dilutions of the test strains in 0.85% NaCl solution are spotted onto the agar medium: The plates are incubated for 24 hours at 37° C. (A. niger 3 days at 28° C.) and then the highest dilution (lowest concentration) of the test substance at which growth is just no longer discernible (corresponds to the MIC) is determined.

In test [7] the test system is Corynebacterium xerosis ATCC 373. The conditions noted are these: ATCC373, 24 h. The protocol:
as §4

In test [8] the test system is Staphylococcus hominis DSM 20328. The note with it: DSM20328. The protocol: as §4
Test [9] deals with Escherichia coli ATCC 10536. The note with it: ATCC10536. The protocol: as §4
Setting [10] is: ATCC10231, Candida albicans ATCC 10231, 24 hours at 37° C.
Where [11] appears, read: 24 h, Candida albicans ATCC 1023 (as printed in Table 3e).

The structures appear in SMILES notation. ≈ marks a conversion by molar mass, not a printed value.

Take `CC(Cc1cc(Oc2ccccc2)ccc1O)C[Si](C)(O[Si](C)(C)C)O[Si](C)(C)C` (stereo not drawn) [(101)]: the MIC in test [1] (setting [10]) was more than 1000 µg/mL; in [2], 1000 µg/mL (≈ 2160 µM); in test [3], more than 1000 µg/mL; in test [4], more than 1000 µg/mL; in [5], more than 1000 µg/mL.
For the compound `COc1cc(CCC[Si](C)(O[Si](C)(C)C)O[Si](C)(C)C)ccc1O` [(102)], the MIC in [1] (setting [10]), in [2], in test [3], in [4] and in test [5] was more than 1000 µg/mL each time.
Turning to `CC(Cc1cc(-c2ccccc2)ccc1O)C[Si](C)(O[Si](C)(C)C)O[Si](C)(C)C` (stereo not drawn) [(103)], the minimal inhibitory concentration (MIC) in test [6] is more than 560 µg/mL; in test [7] it was 17.5 µg/mL (≈ 39.2 µM); in test [8], more than 560 µg/mL; in test [1] (setting [10]), more than 560 µg/mL; in [2], more than 560 µg/mL; in [3], more than 560 µg/mL. Further, the minimal inhibitory concentration (MIC) in test [4] and in [5] was more than 560 µg/mL in each case.
With `C[Si](C)(C)O[Si](C)(CCCc1ccccc1O)O[Si](C)(C)C` [(104)], the MIC is more than 1000 µg/mL in test [1] (setting [10]); 8 µg/mL (≈ 22.4 µM) in [2]; more than 1000 µg/mL in test [3]; more than 1000 µg/mL in [4]; more than 1000 µg/mL in test [5].
For the compound `C[Si](C)(C)O[Si](C)(C)O[Si](C)(C)CCCc1ccccc1O` [(105)], the minimum inhibitory concentration (MIC) in test [6] was 15.6 µg/mL (≈ 43.7 µM); in test [7] it was 3.9 µg/mL (≈ 10.9 µM); in [8], more than 1000 µg/mL; in test [1] (setting [10]) it was more than 1000 µg/mL; in test [2] it was 15.6 µg/mL (≈ 43.7 µM); in test [3] it was more than 1000 µg/mL. In addition, the MIC in test [4] and in test [5] was more than 1000 µg/mL throughout.
Turning to `C[Si](C)(C)O[Si](C)(C)CCCc1ccccc1O` [(106)], the MIC in test [6] is 15.6 µg/mL (≈ 55.2 µM); in test [7], 7.8 µg/mL (≈ 27.6 µM); in [8], 31.2 µg/mL (≈ 110 µM); in test [1] (setting [10]), more than 1000 µg/mL; in [2], 7.8 µg/mL (≈ 27.6 µM); in test [3], more than 1000 µg/mL. In addition, the MIC is more than 1000 µg/mL in test [4] and 31.2 µg/mL (≈ 110 µM) in test [5].
As to `C[Si](C)(CCCc1ccccc1O)c1ccccc1` [(107)], the MIC in test [6] was 3.9 µg/mL (≈ 14.4 µM); in test [7], 1.9 µg/mL (≈ 7.03 µM); in [8] it was 7.8 µg/mL (≈ 28.8 µM); in test [1] (setting [10]) it was 125 µg/mL (≈ 462 µM); in test [2], 1.9 µg/mL (≈ 7.03 µM); in test [3], more than 1000 µg/mL. The MIC in test [4] is more than 1000 µg/mL; in [5], 15.6 µg/mL (≈ 57.7 µM).
As for `CC(Cc1cc(C(C)(C)C)ccc1O)C[Si](C)(O[Si](C)(C)C)O[Si](C)(C)C` (stereo not drawn) [(108)], the MIC is 8 µg/mL (≈ 18.7 µM) in test [7]; more than 1000 µg/mL in [1] (setting [10]); more than 1000 µg/mL in test [3]; more than 1000 µg/mL in test [4]; more than 1000 µg/mL in test [5].
Turning to `COc1ccc(O)c(CCC[Si](C)(O[Si](C)(C)C)O[Si](C)(C)C)c1` [(110)], the MIC in test [7] is 4 µg/mL (≈ 10.3 µM); in test [1] (setting [10]), more than 1000 µg/mL; in [2], 250 µg/mL (≈ 646 µM); in [3], more than 1000 µg/mL; in test [4], more than 1000 µg/mL; in test [5] it was more than 1000 µg/mL.
Take `COc1ccc(O)c(CCC[Si](C)(C)c2ccccc2)c1` [(111)]: the minimal inhibitory concentration (MIC) was 8 µg/mL (≈ 26.6 µM) in [7]; more than 1000 µg/mL in test [1] (setting [10]); 125 µg/mL (≈ 416 µM) in test [2]; more than 1000 µg/mL in test [3]; more than 1000 µg/mL in test [4]; more than 1000 µg/mL in test [5].
For the compound `C[Si](C)(C)O[Si](C)(C)O[Si](C)(C)CCCc1cc(Cl)ccc1O` [(112)], the minimal inhibitory concentration (MIC) in [7] is 2 µg/mL (≈ 5.11 µM); in test [1] (setting [10]) it was more than 1000 µg/mL; in test [2] it was 7 µg/mL (≈ 17.9 µM); in test [3] it was more than 1000 µg/mL; in test [4], more than 1000 µg/mL; in test [5], more than 1000 µg/mL.
With `Cc1ccc(O)c(CCC[Si](C)(C)O[Si](C)(C)C)c1` [(114)], the MIC is 8 µg/mL (≈ 27 µM) in test [7]; more than 1000 µg/mL in [1] (setting [10]); 8 µg/mL (≈ 27 µM) in test [2]; more than 1000 µg/mL in test [3]; more than 1000 µg/mL in test [4]; more than 1000 µg/mL in test [5].
In the case of `C[Si](C)(C)O[Si](C)(C)CCCc1cc(Cl)ccc1O` [(115)], the MIC in [7] was 8 µg/mL (≈ 25.2 µM); in [1] (setting [10]), 500 µg/mL (≈ 1580 µM); in test [2], 15 µg/mL (≈ 47.3 µM); in test [3] it was more than 1000 µg/mL; in test [4] it was 250 µg/mL (≈ 789 µM); in test [5], 500 µg/mL (≈ 1580 µM).
For `C[Si](C)(C)O[Si](C)(CCCc1ccc2ccccc2c1O)O[Si](C)(C)C` [(116)], the MIC in test [7] was 500 µg/mL (≈ 1230 µM); in test [9] it was more than 1000 µg/mL; in [8] it was more than 1000 µg/mL; in [1] (setting [11]), more than 1000 µg/mL; in [2], more than 1000 µg/mL; in [5] it was more than 1000 µg/mL.
For `CC(Cc1ccc2ccccc2c1O)C[Si](C)(O[Si](C)(C)C)O[Si](C)(C)C` (stereo not drawn) [(117)], the MIC in test [7] was 1000 µg/mL (≈ 2380 µM); in test [9] it was more than 1000 µg/mL; in test [8], more than 1000 µg/mL; in test [1] (setting [11]), more than 1000 µg/mL; in test [2], more than 1000 µg/mL; in [5], more than 1000 µg/mL.
As to `CC[Si](CC)(CC)CC(C)Cc1cc(Oc2ccccc2)ccc1O` (stereo not drawn) [(118)], the MIC in test [1] (setting [10]) was more than 1000 µg/mL; in [2], 4 µg/mL (≈ 11.2 µM); in [3] it was more than 1000 µg/mL; in test [4], more than 1000 µg/mL; in test [5] it was more than 1000 µg/mL.
Consider `C[Si](C)(CCCc1cc(Cl)ccc1O)c1ccccc1` [(119)], for which the MIC in test [7] is 2 µg/mL (≈ 6.56 µM); in test [1] (setting [10]), 62 µg/mL (≈ 203 µM); in [2] it was 4 µg/mL (≈ 13.1 µM); in test [3] it was more than 1000 µg/mL; in test [4] it was more than 1000 µg/mL; in [5], 62 µg/mL (≈ 203 µM).
On to `CC(Cc1cc(Oc2ccccc2)ccc1O)C[Si](C)(C)c1ccccc1` (stereo not drawn) [(120)], for which the MIC in test [7] was 4 µg/mL (≈ 10.6 µM); in test [1] (setting [10]), more than 1000 µg/mL; in test [2], 8 µg/mL (≈ 21.2 µM); in [3], more than 1000 µg/mL; in test [4] it was more than 1000 µg/mL; in test [5], more than 1000 µg/mL.
For `CC(Cc1ccc2ccccc2c1O)C[Si](C)(C)c1ccccc1` (stereo not drawn) [(121)], the MIC in [7] was 250 µg/mL (≈ 747 µM); in test [9], more than 1000 µg/mL; in test [8], more than 1000 µg/mL; in [1] (setting [11]), more than 1000 µg/mL; in test [2] it was more than 1000 µg/mL; in test [5], more than 1000 µg/mL.
